Results: patent US8138173B2, “Pyrazolo[3,4-C]quinolines, pyrazolo[3,4-C]naphthyridines, analogs thereof, and methods” (3M Innovative Properties Company, priority 2005, dated 2012)
Structures can show the parent of a compound that is named as a salt.

`O=C(Cc1c2c(nn1-c1ccccc1)c(=O)[nH]c1ccccc12)N1CCN(Cc2ccccc2)CC1` showed a melting point of 283 to 285 °C.
With `O=C(Cc1c2c(nn1-c1ccccc1)c(Cl)nc1ccccc12)N1CCN(Cc2ccccc2)CC1` the melting point was 210.5 to 211.5 °C.
Molecule `Clc1nc2ccccc2c2c(CCC3CCNCC3)n(-c3ccccc3)nc12` (as salt: HCl) [Example 7, 4-Chloro-2-phenyl-1-(2-piperidin-4-ylethyl)-2H-pyrazolo[3,4-c]quinoline] has a melting point of 194 °C.
`CCCn1nc2c(Cl)nc3ccccc3c2c1C` [Example 1, 4-Chloro-1-methyl-2-propyl-2H-pyrazolo[3,4-c]quinoline] gave a melting point of 145 to 147 °C.
In the case of `CCn1nc2c(OC)nc3ccccc3c2c1CO` [Example 5, (2-Ethyl-4-methoxy-2H-pyrazolo[3,4-c]quinolin-1-yl)methanol], the melting point was 219 to 220 °C.
`O=c1[nH]c2ccccc2c2c(CCC3CCNCC3)n(-c3ccccc3)nc12` [Example 6, 2-Phenyl-1-(2-piperidin-4-ylethyl)-2,5-dihydro-4H-pyrazolo[3,4-c]quinolin-4-one] gave a melting point of 250 to 252 °C.
Molecule `CC(C)(C)OC(=O)N1CCC(CC(O)c2c3c(nn2-c2ccccc2)c(=O)[nH]c2ccccc23)CC1` (stereo not shown) [Example 8, tert-Butyl 4-[2-hydroxy-2-(4-oxo-2-phenyl-4,5-dihydro-2H-pyrazolo[3,4-c]quinolin-1-yl)ethyl]piperidine-1-carboxylate] has a melting point of 253 to 254 °C.
In the case of `O=c1[nH]c2ccccc2c2c(C(O)CC3CCNCC3)n(-c3ccccc3)nc12` (stereo not shown) [Example 9, 1-(1-Hydroxy-2-piperidin-4-ylethyl)-2-phenyl-2,5-dihydro-4H-pyrazolo[3,4-c]quinolin-4-one], the melting point was 258 to 261 °C.
With `O=c1[nH]c2ccccc2c2c(C(O)CC3CCCCC3)n(-c3ccccc3)nc12` (stereo not shown) [Example 10, 1-(2-Cyclohexyl-1-hydroxyethyl)-2-phenyl-2,5-dihydro-4H-pyrazolo[3,4-c]quinolin-4-one] the melting point was 254 to 259 °C.
In the case of `Cc1c2c(nn1-c1ccccc1)c(=O)[nH]c1ccccc12` [Example 11, 1-Methyl-2-phenyl-2,5-dihydro-4H-pyrazolo[3,4-c]quinolin-4-one], the melting point was greater than 250 °C.
`Cc1c2c(nn1-c1ccccc1)c(Cl)nc1ccccc12` [Example 12, 4-Chloro-1-methyl-2-phenyl-2H-pyrazolo[3,4-c]quinoline] showed a melting point of 208 to 209 °C.
With `Cc1c2c(cnc3ccccc32)nn1-c1ccccc1` [Example 13, 1-Methyl-2-phenyl-2H-pyrazolo[3,4-c]quinoline] the melting point was 128 to 130 °C.
Molecule `CCc1c2c(nn1-c1ccccc1)c(=O)[nH]c1ccccc12` [Example 14, 1-Ethyl-2-phenyl-2,5-dihydro-4H-pyrazolo[3,4-c]quinolin-4-one] has a melting point of 331 to 334 °C.
`CCc1c2c(nn1-c1ccccc1)c(Cl)nc1ccccc12` [Example 15, 4-Chloro-1-ethyl-2-phenyl-2H-pyrazolo[3,4-c]quinoline] showed a melting point of 207 to 209 °C.
For `CCCCc1c2c(nn1-c1ccccc1)c(Cl)nc1ccccc12` [Example 16, 1-Butyl-4-chloro-2-phenyl-2H-pyrazolo[3,4-c]quinoline], the melting point was 239 to 243 °C.
In the case of `CCOC(=O)Cc1c2c(nn1CC)c(=O)[nH]c1ccccc12` [Example 17, Ethyl (2-ethyl-4-oxo-4,5-dihydro-2H-pyrazolo[3,4-c]quinolin-1-yl)acetate], the melting point was 233 to 235 °C.
In the case of `CCOC(=O)Cc1c2c(nn1-c1ccccc1)c(=O)[nH]c1ccccc12` [Example 18, Ethyl (4-oxo-2-phenyl-4,5-dihydro-2H-pyrazolo[3,4-c]quinolin-1-yl)acetate], the melting point was 301 to 303 °C.
Molecule `O=c1[nH]c2ccccc2c2c(CCO)n(-c3ccccc3)nc12` [Example 20, 1-(2-Hydroxyethyl)-2-phenyl-2,5-dihydro-4H-pyrazolo[3,4-c]quinolin-4-one] has a melting point of 310 to 312 °C.
Work on `Clc1nc2ccccc2c2c(CCN3CCN(Cc4ccccc4)CC3)n(-c3ccccc3)nc12` [Example 23, 1-[2-(4-Benzylpiperazin-1-yl)ethyl]-4-chloro-2-phenyl-2H-pyrazolo[3,4-c]quinoline] yielded a melting point of 75 to 77 °C.
In the case of `O=c1[nH]c2ccccc2c2c(CCN3CCN(Cc4ccccc4)CC3)n(-c3ccccc3)nc12` [Example 24, 1-[2-(4-Benzylpiperazin-1-yl)ethyl]-2-phenyl-2,5-dihydro-4H-pyrazolo[3,4-c]quinolin-4-one], the melting point was 211 to 212.5 °C.
Molecule `CC(C)(C)OC(=O)N1CCC(CCc2c3c(nn2C(C)(C)C)c(=O)[nH]c2ccccc23)CC1` [Example 25, tert-Butyl 4-[2-(2-tert-butyl-4-oxo-4,5-dihydro-2H-pyrazolo[3,4-c]quinolin-1-yl)ethyl]piperidine-1-carboxylate] has a melting point of 223 to 225 °C.
In the case of `CC(C)(C)n1nc2c(=O)[nH]c3ccccc3c2c1CO` [Example 26, 2-tert-Butyl-1-(hydroxymethyl)-2,5-dihydro-4H-pyrazolo[3,4-c]quinolin-4-one], the melting point was 295 to 297 °C.
In the case of `CC(C)Cc1c2c(nn1C)c(O)nc1ccccc12` [Example 27, 1-Isobutyl-2-methyl-2H-pyrazolo[3,4-c]quinolin-4-ol], the melting point was greater than 280 °C.
For `CCCc1c2c(nn1-c1ccccc1)c(=O)[nH]c1ccccc12` [Example 28, 2-Phenyl-1-propyl-2,5-dihydro-4H-pyrazolo[3,4-c]quinolin-4-one], the melting point was greater than 300 °C.
For `CCCn1nc2c(O)nc3ccccc3c2c1CC(C)(C)O` [Example 29, 1-(2-Hydroxy-2-methylpropyl)-2-propyl-2H-pyrazolo[3,4-c]quinolin-4-ol], the melting point was 294 to 296 °C.
